We go through seven compounds from patent publication US20230130791A1, “A Combined Inhibition of EGFR and NRF2 in The Treatment of Malignant Glioma” (United States Government as represented by the Department …, priority 2020, published 2023).

Read-outs that look alike come from different tables or passages of the source.

The conditions of series [1]: Mouse, cited from earlier work; for T½: parent drug (SASP for Sulfazaline).
For series [2] the following is noted: Human, cited from earlier work.
In the next series the test system is p21. Briefly: p21 response to erlotinib (FIG. 12). It counts as cell-based. As to conditions: in response to erlotinib. The source says: p21. p21Cip1/WAF1 is a cyclin-dependent kinase inhibitor that regulates the cell cycle and acts as an antioxidant. The antioxidant function of p21 is mediated through stabilization of Nrf2. Thus, p21 is an interesting target for study.

A further series concerns GBM 12 or GBM6 cells. Briefly: ROS by MitoTracker Red CM-H2XRos. It counts as cell-based, human. To be noted: erlotinib 1 uM, 24 hours. The source says:
Oxidative stress. Without wishing to be bound by theory, it is hypothesized that a sudden inhibition of EGFR signaling may increase oxidative stress and thus activate Nrf2. Previous studies have reported that EGFR inhibition leads to increased oxidative stress in lung and head and neck cancers (Orcutt, et al. (2011) Erlotinib-mediated inhibition of EGFR signaling induces metabolic oxidative stress through NOX4, Cancer Res 71, 3932-3940; Qian, et al. (2009) Clin Exp Pharmacol Physiol 36, 487-494). […] MitoTracker® Red CM-H2XRos (Fisher), a reduced nonfluorescent dye which is taken up passively by living cells, will be used. In the mitochondria, the dye is oxidized by superoxide, resulting in the emission of red fluorescence.
MitoTracker® Red CM-H2XRos (Fisher) was added to culture media at a concentration of 100 nM and incubated at 37° C. in a humidified incubator containing 5% CO2 for 30 minutes, the cells were then fixed in ice-cold methanol for 15 min at −20° C. followed by fluorescence microscopy.

A further series relates to Mayo PDX GBM12 cells. Kind of series: GSH/GSSG ratio by metabolite profiling (LC-MS/MS). It counts as cell-based, human. To be noted: GBM12, 24 hour exposure, means±SD of four experiments.
A short description of series [3]: Toxicity in mice by gavage. As to conditions: 50-100 mg/kg by gavage.
Series [4] relates to GBM12 cells. Kind of series: RNAseq transcriptome and pathway analysis after erlotinib. It is filed as cell-based, human. The source says:
These q-values are corrected from p-values of the hypergeometric test, for multiple testing using the false discovery rate (FDR) method.

Another series deals with Keap1. Briefly: Cellular level of total Keap1. It counts as cell-based. To be noted: data not shown.
A further series has as its system glioma cells. Kind of series: Cell survival/viability assays in glioma cells (general statements). It is filed as cell-based. As to conditions: for synergy with EGFR inhibition in cell survival assays: FIG. 5.
For series [5] the following is noted: in vivo; cited from earlier work.
In a further series the test system is preclinical GBM models. Briefly: Preliminary orthotopic GBM experiments (FIG. 6, general statements). It counts as in vivo.
The test system of series [6] is GBM12 cells. Kind of series: Alamarblue cell viability assay, GBM12. As to conditions: GBM12, 72 hours; ML385 1 μm, INH 1 μm, sulfasalazine 5 μm. It counts as cell-based, human. In general terms: Resazurin is reduced to fluorescent resorufin, in cell work by metabolically active cells.
Excerpt: ML385 (1 μm) and isoniazid (INH 1 μm) are Nrf2 inhibitors while Erastin and sulfasalazine (5 μm) are xCT inhibitors.
[7] abbreviates: parent drug (SASP for Sulfazaline).
Where [8] appears, read: parent drug (SASP for Sulfazaline), dose per Table 5.
[9] abbreviates: TNF inhibitor added to erlotinib.

Excerpt for Mayo PDX GBM12 cells: Determination of GSH levels will be undertaken at a Biochemistry Core Facility at UT Southwestern using metabolite profiling as previously described (Krall, et al. (2017) KEAP1 loss modulates sensitivity to kinase targeted therapy in lung cancer, Elife 6; Yuan, et al. (2012) Nat Protoc 7, 872-881). Samples will be analyzed by liquid chromatography tandem mass spectrometry (LC-MS/MS) using positive ion/negative ion polarity switching via selected reaction monitoring (SRM) on a 5500 QTRAP hybrid triple quadrupole mass spectrometer. Peaks will be integrated using MultiQuant 2.1 data analysis software (AB/SCIEX). The ratio of reduced intracellular glutathione to oxidized glutathione is a measure of oxidative stress.
Data are presented as means±SD of four experiments. […] GSH, reduced glutathione; GSSG, oxidized glutathione.

The AUC is the area under the concentration-time curve, a measure of exposure. The term Cmax denotes the maximum level reached in the sampled fluid or tissue. Regarding `CN(C)C/C=C/C(=O)Nc1cc2c(Nc3ccc(F)c(Cl)c3)ncnc2cc1O[C@H]1CCOC1` [Afatinib, afatinib], the area under the curve (AUC) result in series [1] (30 mg/kg QD) was “(2375 nM * hr”; in [2] (setting [7]), “(~1-2 μM * hr”; in series [2] (setting [8]) it was 459 to 956 ng·h/mL. Also, the values for the Cmax in [1] (30 mg/kg QD), in series [2] (setting [7]) and in series [2] (read-out: Cmax) were 417 nM, 30 to 40 ng/mL and 60 to 80 nM, respectively. Further, the values for the T½ in series [1] and in series [2] (setting [7]) were 5 h and 60.3 h, respectively.

As for `C#Cc1cccc(Nc2ncnc3cc(OCCOC)c(OCCOC)cc23)c1` [Erlotinib, erlotinib], the figures for the area under the curve (AUC) in [1] (12.5 mg/kg QD) and in series [2] (setting [8]) were 27,042 ng * hr/ml and 11,860 ng * hr/ml, respectively. In addition, the highest concentration (Cmax) in series [1] (12.5 mg/kg QD) is recorded as 3,513 ng/mL; in [2] (setting [7]) it was 872 ng/mL. Besides, the T½ in series [1] is 3.1 h. The p21 level entry with p21 is reported as “not upregulated”. The “ROS (Mitotracker dye)” value with GBM 12 or GBM6 cells is given as “increase in ROS”. The GSH/GSSG in the series with Mayo PDX GBM12 cells is given as 68.5 ± 15.2. In addition, in [3], the toxicity result was “without significant toxicity”. The “Genes, Erl-induced pathway” value is recorded as 42 with GBM12 cells [4] (Axon guidance); 35 in the series with GBM12 cells [4] (Ectoderm Differentiation); 14 in the series with GBM12 cells [4] (Glutathione conjugation); 40 with GBM12 cells [4] (NRF2 pathway); 23 with GBM12 cells [4] (Validated targets of C-MYC transcriptional repression); 19 with GBM12 cells [4] (Validated transcriptional targets of Tap63 isoforms). Also, in the series on GBM12 cells [4] (erlotinib 1 μM, 24 hours, GBM 12 cells), the “genes upregulated by RNAseq” value came out at 3635. For the same compound, the “GPX3 expression in GBM” value in the series on GBM12 cells [4] (in response to erlotinib (FIG. 3)) is “upregulated”. Moreover, the “cellular level of total Keap1” value with Keap1 is on record as “not changed”.

For `CCc1cc(C(N)=S)ccn1` [Ethionamide, ethionamide], in the series on glioma cells (erlotinib 1 μM and/or ethionamide 1 μM, 72 hours), the “synergy with EGFR inhibition, cell viability assay” value is “synergizes with EGFR inhibition”.

Consider `NNC(=O)c1ccncc1` [INH, isoniazid], for which the AUC in series [1] (25 mg/kg QD for 4 wks) is 27.3 mg·h/L; in series [2] (150 mg QD for 6 months), 19700 ng·h/mL. In addition, the maximum concentration (Cmax) was 22 µg/mL in series [1] (25 mg/kg QD for 4 wks) and 4830 ng/mL in series [2] (150 mg QD for 6 months). In addition, in series [5], the CNS penetration entry was “highly CNS penetrable”. In addition, the “tumor growth / efficacy in orthotopic experiments” value in the series with preclinical GBM models is “no effect”. The “sensitization of cells to erlotinib, cell viability” value (“sensitization of cells to erlotinib” below) with GBM12 cells [6] was “sensitizes”. Besides, the “synergy with EGFR inhibition in cell survival assays” value in the series with glioma cells is recorded as “synergizes with EGFR inhibition”.

For `Cc1ccccc1C(=O)N1CCc2cc(-c3nc(NC(=O)Cc4ccc5c(c4)OCO5)sc3C)ccc21` [ML385], the “sensitization of cells to erlotinib” value in the series on GBM12 cells [6] is listed as “sensitizes”.

For `O=C(O)c1cc(/N=N/c2ccc(S(=O)(=O)Nc3ccccn3)cc2)ccc1O` [sulfasalazine], the “AUC of SASP” value in series [1] (67.5 mg/kg QD for 3 wks, analyte SASP) is recorded as “SASP: 21 μM * hr”. In addition, the T½ in series [1] was 0.9 h. For the same compound, in [2] (setting [7]), the AUC result is on record as “(122 μM * hr”, the Cmax is reported as 5351 ng/mL and the T½ is 9.8 h. The AUC in series [2] (setting [8]) was 48,500 ng * hr/ml. For the same compound, the “sensitization of cells to erlotinib” value in the series on GBM12 cells [6] was “sensitizes”. In addition, in the series on glioma cells, the “synergy with EGFR inhibition in cell survival assays” value is reported as “synergizes with EGFR inhibition”.

For the compound etanercept, in the series on GBM12 cells [4] (setting [9]), the “block of the 40 NRF2 target genes induced by erlotinib” value is given as “could not be blocked” and the “upregulation of erlotinib induced genes blocked” value is listed as 25%.
